We go through one compound from patent US20240342227A1, “COMBINATION OF E. FAECALIS AND AN ANTI-INFLAMMATORY AGENT AND USES THEREOF IN THE PREVENTION AND/OR TREATMENT OF RESPIRATORY DISEASES” (INSTITUT NATIONAL DE RECHERCHE POUR L'AGRICULTURE, …, priority 2021, published 2024).

“Also recorded” adds a separate entry of the source.

The test system of this assay is BEAS-2B cells. Nature of the assay: IL-8 release induced by TNF-α on BEAS-2B cells (ELISA on supernatant after 6 h). In kind it is cell-based, human. How it is done:
BEAS-2B cells were co-incubated with TNF-α (1 pg/mL) alone or with different doses of budesonide (1.5; 0.75; 0.5; 0.1 nM). After 6 hours of incubation, the IL-8 concentration was measured in the supernatant. IL-8 levels are expressed as a percentage of the IL-8 level induced by stimulation with TNF-α for 6 hours. The results correspond to the mean+SEM for at least 3 experiments, n=6-12 technical replicates. *p<0.05 and ***p<0.001 compared with the TNF-α control group.
BEAS-2B cells were co-incubated with TNF-α (1 pg/mL) alone or with a strain of E. faecalis (CNCM I-4969; I-5701; I-5699) MOI 10:1, and/or 0.1 nM of budesonide, or 0.5 nM of budesonide. After 6 hours of incubation, the IL-8 concentration was measured in the supernatant by ELISA. IL-8 levels are expressed as a percentage of the IL-8 level induced by stimulation with TNF-α for 6 hours. The results correspond to the median of 3 experiments, n=9 technical replicates. *p<0.05 and ***p<0.001 compared with the TNF-α control group, by a Kruskal-Wallis non-parametric test followed by Dunn's post-test.
Human bronchial cells (BEAS-2B) are cultured and a pro-inflammatory situation is induced via the addition of TNF-α to the medium. The BEAS-2B cells then respond by releasing IL-8 into the medium. The IL-8 assay after 6 hours is used to estimate the activation state of the cells, which can be reduced by adding an anti-inflammatory agent.

By inhibition is commonly meant how much of the control response was suppressed. Lower therefore signals a response near the control. `CCCC1O[C@@H]2C[C@H]3[C@@H]4CCC5=CC(=O)C=C[C@]5(C)[C@H]4[C@@H](O)C[C@]3(C)[C@]2(C(=O)CO)O1` (stereo partly drawn) [budesonide] displayed an inhibition at 0.0005 µM (Homo sapiens, BEAS-2B, budesonide alone at 5-times higher dose (0.5 nM), TNF-α-stimulated BEAS-2B) of 50%. Moreover, the “inhibition of IL-8 release” value (budesonide alone at 5-times higher dose (0.5 nM), TNF-α-stimulated BEAS-2B, 0.0005 µM) is 55%. Moreover, the “effect on the release of IL-8 induced by TNF-α” value (budesonide alone, 0.1 nM, BEAS-2B) is “do not have any effect; also recorded: no effect”.
